The values that follow come from publication PMC3639963, “A New Class of Small Molecule Inhibitor of BMP Signaling” (PLoS ONE, 2013).

Holding throughout (assay): Nanosyn kinase profiling
What all share (assay type): biochemical
What all share (conditions): read-out: Percentage inhibition; for inhibition at 0.1 µM: 0.1 µM inhibitor; for inhibition at 1 µM: 1 µM inhibitor

In one assay the target is T1, CK1γ3 (Homo sapiens, UniProt Q9Y6M4).
T1 construct: purchased Nanosyn (enzymatic panel); SGC in-house recombinant human kinases (DSF panel); Invitrogen (ALK1-6)
T1 sequence (Q9Y6M4 whole entry): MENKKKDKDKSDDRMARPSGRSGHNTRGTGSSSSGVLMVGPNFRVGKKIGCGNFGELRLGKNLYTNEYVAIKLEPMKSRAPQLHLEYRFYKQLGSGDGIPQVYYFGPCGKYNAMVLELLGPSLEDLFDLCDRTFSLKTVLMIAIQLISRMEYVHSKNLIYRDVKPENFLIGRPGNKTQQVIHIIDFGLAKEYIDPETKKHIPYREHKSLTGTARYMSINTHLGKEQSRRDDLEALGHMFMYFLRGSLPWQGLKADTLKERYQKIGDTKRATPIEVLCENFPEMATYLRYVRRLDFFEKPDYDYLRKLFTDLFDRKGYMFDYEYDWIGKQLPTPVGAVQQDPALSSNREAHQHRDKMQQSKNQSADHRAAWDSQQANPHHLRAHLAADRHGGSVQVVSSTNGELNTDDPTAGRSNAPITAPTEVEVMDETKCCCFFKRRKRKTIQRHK
The gist of the method:
(§1)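 Percent inhibition of each kinase was measured with the inhibitor at 0.1 µM and at 1 µM, as part of a 200-kinase human selectivity panel.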

The next assay addresses T2, MRCKβ (Homo sapiens, UniProt Q9Y5S2).
T2 construct: purchased Nanosyn (enzymatic panel); SGC in-house recombinant human kinases (DSF panel); Invitrogen (ALK1-6)
The gist of the method: as §1

A further assay has as its target T3, NEK1 (Homo sapiens, UniProt Q96PY6).
T3 construct: purchased Nanosyn (enzymatic panel); SGC in-house recombinant human kinases (DSF panel); Invitrogen (ALK1-6)
T3 sequence (Q96PY6 1-1258): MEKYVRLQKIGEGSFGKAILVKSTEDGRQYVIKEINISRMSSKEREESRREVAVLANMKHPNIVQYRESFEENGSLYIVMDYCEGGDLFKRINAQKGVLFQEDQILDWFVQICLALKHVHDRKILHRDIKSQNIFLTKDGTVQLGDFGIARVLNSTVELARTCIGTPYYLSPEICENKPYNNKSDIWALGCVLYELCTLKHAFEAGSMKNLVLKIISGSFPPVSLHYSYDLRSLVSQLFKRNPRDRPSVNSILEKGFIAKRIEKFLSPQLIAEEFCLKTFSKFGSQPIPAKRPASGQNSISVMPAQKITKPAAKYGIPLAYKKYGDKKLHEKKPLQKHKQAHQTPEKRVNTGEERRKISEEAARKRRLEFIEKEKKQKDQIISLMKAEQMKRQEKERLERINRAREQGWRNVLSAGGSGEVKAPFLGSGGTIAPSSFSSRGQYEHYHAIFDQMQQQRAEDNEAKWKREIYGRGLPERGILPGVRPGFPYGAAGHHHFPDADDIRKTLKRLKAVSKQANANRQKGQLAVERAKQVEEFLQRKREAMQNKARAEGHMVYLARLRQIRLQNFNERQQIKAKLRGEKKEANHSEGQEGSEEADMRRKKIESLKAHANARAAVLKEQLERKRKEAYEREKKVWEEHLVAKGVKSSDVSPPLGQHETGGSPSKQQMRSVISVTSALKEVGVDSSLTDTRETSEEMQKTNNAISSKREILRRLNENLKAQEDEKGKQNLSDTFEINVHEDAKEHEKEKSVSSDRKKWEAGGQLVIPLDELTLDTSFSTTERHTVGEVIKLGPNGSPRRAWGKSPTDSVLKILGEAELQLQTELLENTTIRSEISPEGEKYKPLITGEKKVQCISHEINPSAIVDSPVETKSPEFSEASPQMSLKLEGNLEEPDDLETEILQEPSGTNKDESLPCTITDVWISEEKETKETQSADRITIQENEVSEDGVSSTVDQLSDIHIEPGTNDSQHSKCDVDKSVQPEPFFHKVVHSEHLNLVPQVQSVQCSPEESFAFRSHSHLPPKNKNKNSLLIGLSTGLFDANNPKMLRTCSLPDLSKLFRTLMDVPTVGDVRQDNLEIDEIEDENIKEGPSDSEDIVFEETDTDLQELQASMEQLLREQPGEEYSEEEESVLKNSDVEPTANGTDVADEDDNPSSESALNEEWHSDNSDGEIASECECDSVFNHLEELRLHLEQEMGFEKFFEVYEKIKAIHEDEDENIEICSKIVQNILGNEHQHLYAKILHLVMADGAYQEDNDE
The essentials: as §1

The target in another assay is T4, TEC (Homo sapiens, UniProt P42680).
T4 construct: purchased Nanosyn (enzymatic panel); SGC in-house recombinant human kinases (DSF panel); Invitrogen (ALK1-6)
T4 sequence (P42680 1-631): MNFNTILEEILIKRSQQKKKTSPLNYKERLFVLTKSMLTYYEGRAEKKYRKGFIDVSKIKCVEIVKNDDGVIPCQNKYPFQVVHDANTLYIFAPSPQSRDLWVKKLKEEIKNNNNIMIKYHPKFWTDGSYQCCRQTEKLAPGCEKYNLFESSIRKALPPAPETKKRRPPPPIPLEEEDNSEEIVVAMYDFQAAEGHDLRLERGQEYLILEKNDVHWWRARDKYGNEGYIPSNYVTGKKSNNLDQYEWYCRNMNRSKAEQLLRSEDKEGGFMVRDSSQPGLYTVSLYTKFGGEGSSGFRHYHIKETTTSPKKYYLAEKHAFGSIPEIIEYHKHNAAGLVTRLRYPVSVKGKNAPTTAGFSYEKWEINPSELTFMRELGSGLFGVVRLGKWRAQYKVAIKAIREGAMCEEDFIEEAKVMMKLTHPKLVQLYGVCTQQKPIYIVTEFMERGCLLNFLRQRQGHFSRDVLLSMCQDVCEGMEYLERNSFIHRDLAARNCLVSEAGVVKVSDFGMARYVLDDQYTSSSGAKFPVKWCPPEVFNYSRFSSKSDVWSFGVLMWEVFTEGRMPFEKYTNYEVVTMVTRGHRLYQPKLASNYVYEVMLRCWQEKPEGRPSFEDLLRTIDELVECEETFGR
The essentials: as §1

Another assay addresses T5, NEK2 (Homo sapiens, UniProt P51955).
T5 construct: purchased Nanosyn (enzymatic panel); SGC in-house recombinant human kinases (DSF panel); Invitrogen (ALK1-6)
T5 sequence (P51955 1-445): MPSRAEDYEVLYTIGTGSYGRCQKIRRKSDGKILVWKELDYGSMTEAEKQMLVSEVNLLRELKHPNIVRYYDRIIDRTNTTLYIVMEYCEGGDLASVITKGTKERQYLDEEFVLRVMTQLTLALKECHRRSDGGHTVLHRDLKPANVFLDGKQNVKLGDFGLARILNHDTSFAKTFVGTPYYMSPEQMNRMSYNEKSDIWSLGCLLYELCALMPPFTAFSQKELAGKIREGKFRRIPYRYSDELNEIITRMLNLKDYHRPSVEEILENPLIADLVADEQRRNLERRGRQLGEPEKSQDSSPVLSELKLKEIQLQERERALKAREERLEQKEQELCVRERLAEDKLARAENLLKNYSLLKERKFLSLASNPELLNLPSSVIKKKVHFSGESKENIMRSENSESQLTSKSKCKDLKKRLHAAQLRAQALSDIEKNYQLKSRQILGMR
The essentials: as §1

The next assay has as its target T6, IRR (Homo sapiens, UniProt P14616).
T6 construct: purchased Nanosyn (enzymatic panel); SGC in-house recombinant human kinases (DSF panel); Invitrogen (ALK1-6)
The gist of the method: as §1

A further assay has as its target T7, PAK1 (Homo sapiens, UniProt Q13153).
T7 construct: purchased Nanosyn (enzymatic panel); SGC in-house recombinant human kinases (DSF panel); Invitrogen (ALK1-6)
The gist of the method: as §1

T2 sequence (Q9Y5S2 whole entry): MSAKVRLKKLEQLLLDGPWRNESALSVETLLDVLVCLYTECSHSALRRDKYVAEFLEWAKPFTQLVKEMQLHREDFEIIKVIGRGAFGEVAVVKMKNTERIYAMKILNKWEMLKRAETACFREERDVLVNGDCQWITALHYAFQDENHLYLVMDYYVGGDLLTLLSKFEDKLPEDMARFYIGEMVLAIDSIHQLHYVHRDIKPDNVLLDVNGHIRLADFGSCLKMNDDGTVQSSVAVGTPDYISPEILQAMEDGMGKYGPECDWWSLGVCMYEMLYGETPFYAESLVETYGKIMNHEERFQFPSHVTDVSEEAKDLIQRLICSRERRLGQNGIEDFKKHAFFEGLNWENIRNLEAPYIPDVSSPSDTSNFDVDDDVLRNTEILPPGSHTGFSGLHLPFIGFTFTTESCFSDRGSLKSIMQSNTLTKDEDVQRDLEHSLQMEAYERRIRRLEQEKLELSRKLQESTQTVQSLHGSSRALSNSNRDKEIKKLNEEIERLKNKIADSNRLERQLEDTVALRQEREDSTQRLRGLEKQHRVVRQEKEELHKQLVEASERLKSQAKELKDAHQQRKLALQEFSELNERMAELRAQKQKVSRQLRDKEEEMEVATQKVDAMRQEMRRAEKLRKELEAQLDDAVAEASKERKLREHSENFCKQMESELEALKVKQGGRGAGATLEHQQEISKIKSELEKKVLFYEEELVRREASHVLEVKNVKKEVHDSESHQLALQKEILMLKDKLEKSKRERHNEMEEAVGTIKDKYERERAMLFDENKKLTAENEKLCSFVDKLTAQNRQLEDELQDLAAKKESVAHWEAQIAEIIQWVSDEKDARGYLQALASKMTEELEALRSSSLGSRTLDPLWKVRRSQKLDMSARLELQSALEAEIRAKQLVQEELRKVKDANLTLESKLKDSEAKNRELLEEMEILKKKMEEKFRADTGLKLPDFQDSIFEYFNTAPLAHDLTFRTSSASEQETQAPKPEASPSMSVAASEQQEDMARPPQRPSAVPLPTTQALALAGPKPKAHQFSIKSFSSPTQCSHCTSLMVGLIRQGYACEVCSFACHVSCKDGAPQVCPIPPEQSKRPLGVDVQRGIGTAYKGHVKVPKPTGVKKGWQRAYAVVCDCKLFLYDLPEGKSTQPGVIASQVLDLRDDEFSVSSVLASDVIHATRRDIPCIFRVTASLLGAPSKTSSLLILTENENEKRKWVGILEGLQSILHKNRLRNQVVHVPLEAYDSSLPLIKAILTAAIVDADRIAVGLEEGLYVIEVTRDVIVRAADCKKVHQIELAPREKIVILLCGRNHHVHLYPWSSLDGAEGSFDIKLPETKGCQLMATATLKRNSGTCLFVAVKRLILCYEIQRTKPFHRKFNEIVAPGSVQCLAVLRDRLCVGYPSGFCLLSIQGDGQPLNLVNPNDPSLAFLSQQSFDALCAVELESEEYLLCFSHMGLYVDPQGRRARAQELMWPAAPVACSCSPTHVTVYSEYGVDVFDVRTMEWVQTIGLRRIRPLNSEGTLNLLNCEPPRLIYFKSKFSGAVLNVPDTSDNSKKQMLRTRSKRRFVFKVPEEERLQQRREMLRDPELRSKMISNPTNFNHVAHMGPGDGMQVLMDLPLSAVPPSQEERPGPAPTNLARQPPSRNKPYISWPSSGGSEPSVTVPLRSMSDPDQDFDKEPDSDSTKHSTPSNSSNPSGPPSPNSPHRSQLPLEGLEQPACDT
T7 sequence (Q13153 whole entry): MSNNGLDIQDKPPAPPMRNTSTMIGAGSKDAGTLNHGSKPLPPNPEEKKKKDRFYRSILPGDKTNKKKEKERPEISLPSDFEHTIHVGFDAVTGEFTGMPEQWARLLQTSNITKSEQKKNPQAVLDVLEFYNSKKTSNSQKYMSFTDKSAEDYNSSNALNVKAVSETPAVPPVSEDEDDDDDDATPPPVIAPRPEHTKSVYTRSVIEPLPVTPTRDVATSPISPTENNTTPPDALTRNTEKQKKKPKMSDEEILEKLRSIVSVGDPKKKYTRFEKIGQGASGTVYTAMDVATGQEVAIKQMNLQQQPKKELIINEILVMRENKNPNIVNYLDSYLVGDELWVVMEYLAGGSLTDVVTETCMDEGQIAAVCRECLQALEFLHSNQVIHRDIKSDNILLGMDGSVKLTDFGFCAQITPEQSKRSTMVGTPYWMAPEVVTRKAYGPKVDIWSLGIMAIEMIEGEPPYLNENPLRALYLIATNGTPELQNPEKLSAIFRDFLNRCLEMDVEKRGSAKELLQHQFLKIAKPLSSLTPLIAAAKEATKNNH
T6 sequence (P14616 27-1297): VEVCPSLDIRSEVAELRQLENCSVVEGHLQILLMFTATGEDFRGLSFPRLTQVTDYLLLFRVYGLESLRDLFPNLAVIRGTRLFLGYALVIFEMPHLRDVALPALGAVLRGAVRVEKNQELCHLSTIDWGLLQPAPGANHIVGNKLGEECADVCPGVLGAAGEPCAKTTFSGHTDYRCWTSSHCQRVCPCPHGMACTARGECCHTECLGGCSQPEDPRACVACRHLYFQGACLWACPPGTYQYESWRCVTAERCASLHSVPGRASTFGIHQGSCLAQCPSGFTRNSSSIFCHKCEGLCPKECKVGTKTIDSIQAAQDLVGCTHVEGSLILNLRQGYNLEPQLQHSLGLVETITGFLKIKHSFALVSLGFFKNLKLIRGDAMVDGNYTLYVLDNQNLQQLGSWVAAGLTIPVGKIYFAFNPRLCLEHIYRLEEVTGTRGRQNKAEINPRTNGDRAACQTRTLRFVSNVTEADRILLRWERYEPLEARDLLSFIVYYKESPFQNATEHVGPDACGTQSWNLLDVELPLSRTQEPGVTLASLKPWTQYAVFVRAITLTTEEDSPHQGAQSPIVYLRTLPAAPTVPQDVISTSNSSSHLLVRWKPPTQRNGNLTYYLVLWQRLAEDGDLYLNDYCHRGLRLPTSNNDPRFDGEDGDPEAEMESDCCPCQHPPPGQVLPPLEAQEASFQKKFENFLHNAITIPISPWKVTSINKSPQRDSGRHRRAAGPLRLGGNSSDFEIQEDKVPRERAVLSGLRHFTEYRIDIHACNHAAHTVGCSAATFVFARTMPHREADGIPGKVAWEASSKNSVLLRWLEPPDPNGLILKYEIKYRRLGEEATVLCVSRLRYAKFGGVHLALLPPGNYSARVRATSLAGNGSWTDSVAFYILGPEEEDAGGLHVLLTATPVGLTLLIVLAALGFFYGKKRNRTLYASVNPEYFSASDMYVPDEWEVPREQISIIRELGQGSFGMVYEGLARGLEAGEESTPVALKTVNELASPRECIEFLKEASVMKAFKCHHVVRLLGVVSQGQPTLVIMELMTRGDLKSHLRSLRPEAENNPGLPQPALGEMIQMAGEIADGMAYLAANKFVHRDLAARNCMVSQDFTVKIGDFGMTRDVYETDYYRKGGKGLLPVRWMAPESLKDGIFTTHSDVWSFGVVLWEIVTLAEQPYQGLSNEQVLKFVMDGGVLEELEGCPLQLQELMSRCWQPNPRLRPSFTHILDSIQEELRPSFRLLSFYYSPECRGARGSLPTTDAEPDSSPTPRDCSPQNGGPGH

Broadly, the inhibition is the drop in the measured response relative to a control, in per cent. In the case of `COc1cc(-c2cc(-c3cccc(O)c3)cnc2N)cc(OC)c1OC` [K02288, 3-[6-amino-5-(3,4,5-trimethoxy-phenyl)-pyridin-3-yl]-phenol], the inhibition at 0.1 µM at CK1γ3 is 2.7%; on MRCKβ it was 0.6%; at NEK1, -1%; at TEC it was 0.3%; on NEK2, -2%; on IRR it was -1%. For the same molecule, the inhibition at 0.1 µM on PAK1 was 0%. The inhibition at 1 µM was 19% at CK1γ3; 2% on MRCKβ; 0.8% at NEK1; 14% on TEC; -2% at NEK2; -1% at IRR. Moreover, the inhibition at 1 µM on PAK1 amounted to 0.6%.

Take `c1ccc2c(-c3cnn4cc(-c5ccc(N6CCNCC6)cc5)cnc34)ccnc2c1` [LDN-193189]: the inhibition at 0.1 µM is 2.3% on CK1γ3; 0% on MRCKβ; 2.1% at NEK1; 1.8% at TEC; 2.8% at NEK2; 1.9% at IRR. Moreover, at PAK1, the inhibition at 0.1 µM worked out at 4.3%. Further, the inhibition at 1 µM at CK1γ3 is 5.5%; at MRCKβ, 2.1%; on NEK1, 3.4%; on TEC, 5.5%; at NEK2, 1.2%; at IRR it was 2.2%. Further, the inhibition at 1 µM on PAK1 is 4.9%.
